# Key:
# hTRPV1 = target: T1, hTRPV1 (Homo sapiens, UniProt Q8NER1); assay: Human TRPV1 (hTRPV1) functional assay, FLIPR intracellular Ca2+, capsaicin challenge; type: cell-based; details: HEK293 cells expressing hTRPV1, capsaicin 0.030 μM challenge; for IC50: derived from a variety of test concentrations, read-out: IC50 value (symbol c); for inhibition at 0.5 µM: test concentration of 0.5 μm, read-out: percent inhibition (symbol a); for inhibition at 0.2 µM: test concentration of 0.2 μm, read-out: percent inhibition (symbol b)
# T1 construct: expressed in transfected cells; host or cells: HEK293
# How it was run: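 HEK293 cells expressing the channel, loaded with Calcium 3 dye, were exposed to compounds for 5 min before capsaicin 0.030 μM (~80% maximal). FLIPR Ca2+ read; IC50/EC50 from quadruplicate concentration-response, or percent inhibition at 0.5 μm or 0.2 μm.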
# male Sprague-Dawley rats = assay: CFA-induced inflammatory pain, reversal of thermal hyperalgesia (radiant heat paw stimulator); type: in vivo; details: Rattus norvegicus, po, 10 mg/kg orally, 24 h after CFA, maximal during the 300 min test, read-out: % Reversal (maximal percent reversal of hypersensitivity)
# Experimental: Compounds of the present invention were tested in animal models of inflammation and inflammatory pain. To assess the ability of test compounds to reverse thermal hyperalgesia, baseline response latencies on a radiant heat (RH) paw stimulator were obtained before an intraplantar injection of 100 μL (1 μg/μL) CFA (1:1 CFA:saline) in male Sprague-Dawley rats. Only withdrawal responses that were quick hind paw movements (with or without licking of the hind paw) were recorded. Paw movements associated with locomotion or a shifting of weight were not considered a withdrawal response. The stimulus intensity that produced 10-15 sec baseline withdrawal latencies was used and a maximum cutoff of 20 sec was imposed. Hypersensitivity was evaluated 24 h after CFA.
# Following the post-inflammogen latency assessment, rats were orally dosed (2.5 mL/kg) with test compound (10 mg/kg) or vehicle (20% hydroxypropyl beta cyclodextran). To determine the time of peak effect, latencies were redetermined 30, 60, 100, 180 and 300 min after compound administration.
# Data are presented as the maximal percent reversal of hypersensitivity obtained during the 300 min test, which was calculated for each animal according to the formula: % reversal=100%×(treatment response−post-inflammogen response)/(pre-inflammogen response−post-inflammogen response)
# T1 sequence (Q8NER1 whole entry): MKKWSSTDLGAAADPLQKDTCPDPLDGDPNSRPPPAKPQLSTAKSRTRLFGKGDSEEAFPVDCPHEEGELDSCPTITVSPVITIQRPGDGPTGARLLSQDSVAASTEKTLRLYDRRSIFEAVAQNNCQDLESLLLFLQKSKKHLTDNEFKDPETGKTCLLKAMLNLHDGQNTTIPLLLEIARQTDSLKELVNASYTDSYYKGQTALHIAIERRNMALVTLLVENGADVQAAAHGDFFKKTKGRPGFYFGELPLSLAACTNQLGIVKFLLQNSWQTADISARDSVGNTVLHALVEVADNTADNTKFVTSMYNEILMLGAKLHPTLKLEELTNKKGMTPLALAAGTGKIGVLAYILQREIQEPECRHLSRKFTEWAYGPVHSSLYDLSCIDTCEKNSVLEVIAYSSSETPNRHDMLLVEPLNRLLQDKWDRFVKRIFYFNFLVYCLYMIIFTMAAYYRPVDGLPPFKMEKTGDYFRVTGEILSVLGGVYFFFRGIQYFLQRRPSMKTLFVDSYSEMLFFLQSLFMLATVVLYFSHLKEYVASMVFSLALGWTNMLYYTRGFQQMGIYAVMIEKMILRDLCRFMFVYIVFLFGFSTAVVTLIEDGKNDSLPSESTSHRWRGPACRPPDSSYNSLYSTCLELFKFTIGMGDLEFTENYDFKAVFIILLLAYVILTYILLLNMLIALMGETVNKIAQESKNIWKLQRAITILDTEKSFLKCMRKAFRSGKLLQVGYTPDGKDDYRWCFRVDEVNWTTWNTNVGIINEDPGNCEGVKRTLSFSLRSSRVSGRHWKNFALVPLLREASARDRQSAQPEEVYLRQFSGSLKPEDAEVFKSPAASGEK
SMILES,IC50 (hTRPV1) [µM],inhibition at 0.5 µM (hTRPV1) [%],inhibition at 0.2 µM (hTRPV1) [%],inhibition in vivo at 10 mg/kg (male Sprague-Dawley rats) [%]
"NS(=O)(=O)c1ccccc1-c1ccc2[nH]c(COc3ccc(S(=O)(=O)C(F)(F)F)cc3)nc2c1 [Cpd 2, 2-[2-(4-trifluoromethanesulfonyl-phenoxymethyl)-1H-benzoimidazol-5-yl]-benzenesulfonamide]",0.01,99,,80
"NS(=O)(=O)c1ccccc1-c1ccc2[nH]c(COc3ccc(OC(F)(F)F)cc3)nc2c1 [Cpd 16, 2-[2-(4-trifluoromethoxy-phenoxymethyl)-1H-benzoimidazol-5-yl]-benzenesulfonamide]",0.01,99,,70
"CC(C)C(O)c1ccccc1-c1ccc2[nH]c(COc3ccc(C(F)(F)F)cc3)nc2c1 (stereo not drawn) [Cpd 144, 2-methyl-1-{2-[2-(4-trifluoromethyl-phenoxymethyl)-1H-benzoimidazol-5-yl]-phenyl}-propan-1-ol]",0.114,,82,
"CON(C)C(=O)C(O)c1ccccc1-c1ccc2[nH]c(COc3ccc(C(F)(F)F)cc3)nc2c1 (stereo not drawn) [Cpd 149, 2-hydroxy-N-methoxy-N-methyl-2-{2-[2-(4-trifluoromethyl-phenoxymethyl)-1H-benzoimidazol-5-yl]-phenyl}-acetamide]",0.046,,89,
"OCC(O)c1ccccc1-c1ccc2[nH]c(COc3ccc(C(F)(F)F)cc3)nc2c1 (stereo not drawn) [Cpd 150, 1-{2-[2-(4-trifluoromethyl-phenoxymethyl)-1H-benzoimidazol-5-yl]-phenyl}-ethane-1,2-diol]",0.016,,99,
"CC(Oc1ccc(C(F)(F)F)cc1)c1nc2cc(-c3ccccc3S(N)(=O)=O)ccc2[nH]1 (stereo not drawn) [Cpd 156, 2-{2-[1-(4-trifluoromethyl-phenoxy)-ethyl]-1H-benzoimidazol-5-yl}-benzenesulfonamide]",0.078,,76,
"CCC(Oc1ccc(C(F)(F)F)cc1)c1nc2cc(-c3ccccc3S(N)(=O)=O)ccc2[nH]1 (stereo not drawn) [Cpd 157, 2-{2-[1-(4-trifluoromethyl-phenoxy)-propyl]-1H-benzoimidazol-5-yl}-benzenesulfonamide]",,,20,
"O=S(=O)(c1ccccc1-c1ccc2[nH]c(COc3ccc(C(F)(F)F)cc3)nc2c1)C(F)(F)F [Cpd 158, 5-(2-trifluoromethanesulfonyl-phenyl)-2-(4-trifluoromethyl-phenoxymethyl)-1H-benzoimidazole]",,,13,
"CC(O)CS(=O)(=O)c1ccccc1-c1ccc2[nH]c(COc3ccc(C(F)(F)F)cc3)nc2c1 (stereo not drawn) [Cpd 160, 1-{2-[2-(4-trifluoromethyl-phenoxymethyl)-1H-benzoimidazol-5-yl]-benzenesulfonyl}-propan-2-ol]",0.0125,,90,
"O=S(=O)(CCO)c1ccccc1-c1ccc2[nH]c(COc3ccc(S(=O)(=O)C(F)(F)F)cc3)nc2c1 [Cpd 161, 2-{2-[2-(4-trifluoromethanesulfonyl-phenoxymethyl)-1H-benzoimidazol-5-yl]-benzenesulfonyl}-ethanol]",,,63,
"CS(=O)(=O)c1ccc(OCc2nc3cc(-c4ccccc4S(=O)(=O)CCO)ccc3[nH]2)cc1 [Cpd 162, 2-{2-[2-(4-methanesulfonyl-phenoxymethyl)-1H-benzoimidazol-5-yl]-benzenesulfonyl}-ethanol]",,,4,
"CC(C)(O)c1ccccc1-c1ccc2[nH]c(COc3ccc(C4CC4)cc3)nc2c1 [Cpd 163, 2-{2-[2-(4-cyclopropyl-phenoxymethyl)-1H-benzoimidazol-5-yl]-phenyl}-propan-2-ol]",0.003,,98,
"NS(=O)(=O)c1ccccc1-c1ccc2[nH]c(COc3ccc(C4CC4)cc3)nc2c1 [Cpd 164, 2-[2-(4-cyclopropyl-phenoxymethyl)-1H-benzoimidazol-5-yl]-benzenesulfonamide]",0.025,,97,
"CNS(=O)(=O)c1ccccc1-c1ccc2[nH]c(COc3ccc(C4CC4)cc3)nc2c1 [Cpd 165, 2-[2-(4-cyclopropyl-phenoxymethyl)-1H-benzoimidazol-5-yl]-N-methyl-benzenesulfonamide]",0.006,,98,
"CN(C)S(=O)(=O)c1ccccc1-c1ccc2[nH]c(COc3ccc(C4CC4)cc3)nc2c1 [Cpd 166, 2-[2-(4-cyclopropyl-phenoxymethyl)-1H-benzoimidazol-5-yl]-N,N-dimethyl-benzenesulfonamide]",0.007,,98,
"CS(=O)(=O)c1ccccc1-c1ccc2[nH]c(COc3ccc(C4CC4)cc3)nc2c1 [Cpd 167, 2-(4-cyclopropyl-phenoxymethyl)-5-(2-methanesulfonyl-phenyl)-1H-benzoimidazole]",0.007,,98,
"CS(=O)(=O)Nc1ccccc1-c1ccc2[nH]c(COc3ccc(C4CC4)cc3)nc2c1 [Cpd 168, N-{2-[2-(4-cyclopropyl-phenoxymethyl)-1H-benzoimidazol-5-yl]-phenyl}-methanesulfonamide]",0.024,,97,

# More lines, main results first:
IC50 (hTRPV1) [µM],inhibition at 0.5 µM (hTRPV1) [%],inhibition at 0.2 µM (hTRPV1) [%],SMILES,inhibition in vivo at 10 mg/kg (male Sprague-Dawley rats) [%]
0.001,100,,"CNS(=O)(=O)c1ccccc1-c1ccc2[nH]c(COc3ccc(C(F)(F)F)cc3)nc2c1 [Cpd 17, N-methyl-2-[2-(4-trifluoromethyl-phenoxymethyl)-1H-benzoimidazol-5-yl]-benzenesulfonamide]",100
0.014,99,,"CC(C)(O)c1ccccc1-c1ccc2[nH]c(COc3ccc(C(F)(F)F)cc3)nc2c1 [Cpd 21, 2-{2-[2-(4-trifluoromethyl-phenoxymethyl)-1H-benzoimidazol-5-yl]-phenyl}-propan-2-ol]",100
,,12,"CC(C)(C)C(O)c1ccccc1-c1ccc2[nH]c(COc3ccc(C(F)(F)F)cc3)nc2c1 (stereo not drawn) [Cpd 145, 2,2-dimethyl-1-{2-[2-(4-trifluoromethyl-phenoxymethyl)-1H-benzoimidazol-5-yl]-phenyl}-propan-1-ol]",
,,72,"CC(O)C(=O)c1ccccc1-c1ccc2[nH]c(COc3ccc(C(F)(F)F)cc3)nc2c1 (stereo not drawn) [Cpd 146, 2-hydroxy-1-{2-[2-(4-trifluoromethyl-phenoxymethyl)-1H-benzoimidazol-5-yl]-phenyl}-propan-1-one]",
0.007,,98,"CC(C)(O)C(=O)c1ccccc1-c1ccc2[nH]c(COc3ccc(C(F)(F)F)cc3)nc2c1 [Cpd 147, 2-hydroxy-2-methyl-1-{2-[2-(4-trifluoromethyl-phenoxymethyl)-1H-benzoimidazol-5-yl]-phenyl}-propan-1-one]",
0.058,,89,"CN(C)C(=O)C(O)c1ccccc1-c1ccc2[nH]c(COc3ccc(C(F)(F)F)cc3)nc2c1 (stereo not drawn) [Cpd 148, N,N-dimethyl-2-hydroxy-2-{2-[2-(4-trifluoromethyl-phenoxymethyl)-1H-benzoimidazol-5-yl]-phenyl}-acetamide]",
,,33,"O=C(CO)c1ccccc1-c1ccc2[nH]c(COc3ccc(C(F)(F)F)cc3)nc2c1 [Cpd 151, 2-hydroxy-1-{2-[2-(4-trifluoromethyl-phenoxymethyl)-1H-benzoimidazol-5-yl]-phenyl}-ethanone]",
,,38,"O=C(NCCO)c1ccccc1-c1ccc2[nH]c(COc3ccc(C(F)(F)F)cc3)nc2c1 [Cpd 152, N-(2-hydroxy-ethyl)-2-[2-(4-trifluoromethyl-phenoxymethyl)-1H-benzoimidazol-5-yl]-benzamide]",
,,31,"CC(C)(O)CNC(=O)c1ccccc1-c1ccc2[nH]c(COc3ccc(C(F)(F)F)cc3)nc2c1 [Cpd 153, N-(2-hydroxy-2-methyl-propyl)-2-[2-(4-trifluoromethyl-phenoxymethyl)-1H-benzoimidazol-5-yl]-benzamide]",
,,68,"CC(O)CNC(=O)c1ccccc1-c1ccc2[nH]c(COc3ccc(C(F)(F)F)cc3)nc2c1 (stereo not drawn) [Cpd 154, N-(2-hydroxy-propyl)-2-[2-(4-trifluoromethyl-phenoxymethyl)-1H-benzoimidazol-5-yl]-benzamide]",
,,21,"CN(CCO)C(=O)c1ccccc1-c1ccc2[nH]c(COc3ccc(C(F)(F)F)cc3)nc2c1 [Cpd 155, N-(2-hydroxy-ethyl)-N-methyl-2-[2-(4-trifluoromethyl-phenoxymethyl)-1H-benzoimidazol-5-yl]-benzamide]",
0.022,,90,"CC(C)(O)CS(=O)(=O)c1ccccc1-c1ccc2[nH]c(COc3ccc(C(F)(F)F)cc3)nc2c1 [Cpd 159, 2-methyl-1-{2-[2-(4-trifluoromethyl-phenoxymethyl)-1H-benzoimidazol-5-yl]-benzenesulfonyl}-propan-2-ol]",

# Source: US7612211B2, “Benzimidazole TRPV1 inhibitors” (Janssen Pharmaceutica N.V., priority 2006, dated 2009)
